Data as given in patent US20210130346A1, “Bromodomain Inhibitors” (AbbVie Inc., priority 2017, published 2021).

Key:
[1] = tested on: SKM-1 xenograft tumors; test: Growth inhibition of SKM-1 xenograft tumors implanted in mice; type: in vivo, female SCID mice; conditions: SCID mice
Protocol: The effect of compounds of the examples to inhibit the growth of SKM-1 xenograft tumors implanted in mice was evaluated. A suspension of cancer cells (5×10^6 per 0.1 mL) prepared in RPMI culture medium (Invitrogen, Carlsbad, Calif.) was diluted 1:1 with a solution of Matrigel™ (BD Biosciences, Franklin Lakes, N.J.) and inoculated subcutaneously into the right hind flank of female SCID (Charles River Labs) mice. Randomization into treatment and vehicle control groups (8/group) occurred when the mean tumor volume reached approximately 250 mm^3. Example 3 was formulated in 10% ethanol, 30% PEG 400, 60% Phosol-50PG. Example 34 was formulated as a nanosuspension (2% low viscosity hydroxypropylcellulose polymer/0.2% sodium dodecyl sulfate in water). Administration of compound or vehicle was initiated on the day following randomization and continued for […]. Tumors were measured twice a week throughout the treatment period using a pair of calipers and tumor volumes were calculated according to the formula V=L×W^2/2 (V: volume, mm^3; L: length, mm. W: width, mm). Tumor growth inhibition was calculated based on the mean tumor volume measured on the first day that the mean volume of the vehicle group exceeded 2000 mm^3 according to the formula: % TGI=100−(100×(mean tumor volume of treatment group/mean tumor volume of control group))

[2] = target: BRD4 (BDI_K57-E168) (Homo sapiens, UniProt O60885); test: TR-FRET bromodomain binding assay, BRD4 first bromodomain (BDI); conditions: mean Ki; 12 nM His tagged BRD4 (BDI_K57-E168), 100 nM Alexa647 probe; Ki calculated from IC50, probe Kd and probe concentration
Protocol: A time-resolved fluorescence resonance energy transfer (TR-FRET) assay was used to determine the affinities of compounds of the Examples listed in Table 1 for each bromodomain of BRD4. […] An Alexa647-labeled BET-inhibitor was used as the fluorescent probe in the assay.
Compound dilution series were prepared in DMSO via an approximately 3-fold serial dilution. Compound dilutions were added directly into white, low-volume assay plates (Perkin Elmer Proxiplate 384 Plus# 6008280) using a Labcyte Echo in conjunction with Labcyte Access and Thermo Multidrop CombinL robotics. Compounds were then suspended in eight microliters (μL) of assay buffer (20 mM Sodium Phosphate, pH 6.0, 50 mM NaCl, 1 mM Ethylenediaminetetraacetic acid disodium salt dihydrate, 0.01% Triton X-100, 1 mM DL-Dithiothreitol) containing His-tagged bromodomain, Europium-conjugated anti-His antibody (Invitrogen PV5596) and Alexa-647-conjugated probe.
After a one-hour equilibration at room temperature, TR-FRET ratios were determined using an Envision multilabel plate reader (Ex 340, Em 495/520).
TR-FRET data were normalized to the means of 24 no-compound controls (“high”) and 8 controls containing 1 μM un-labeled probe (“low”). Percent inhibition was plotted as a function of compound concentration and the data were fit with the 4 parameter logistic equation to obtain IC50s. Inhibition constants (Ki) were calculated from the IC50s, probe Kd and probe concentration.

Row | Ki [2] | Compound | further results
1 | 0.441 µM | CN1C(=O)[C@]2(C[C@@H]2c2cn(C)c(=O)c3[nH]c(-c4cnn(C)c4)cc23)c2ccccc21 [Example 34, (1S,2R)-1′-methyl-2-[6-methyl-2-(1-methyl-1H-pyrazol-4-yl)-7-oxo-6,7-dihydro-1H-pyrrolo[2,3-c]pyridin-4-yl]spiro[cyclopropane-1,3′-indol]-2′(1H)-one] | % TGI ([1]; dose 38 mg/kg/d, formulated as a nanosuspension): 42%; % TGI ([1]; dose 75 mg/kg/d, formulated as a nanosuspension): 74%
2 | 1.42 µM | CN1C(=O)[C@]2(C[C@@H]2c2cn(C)c(=O)c3[nH]c(-c4cccnc4)cc23)c2ccccc21 [Example 48, (1S,2R)-1′-methyl-2-[6-methyl-7-oxo-2-(pyridin-3-yl)-6,7-dihydro-1H-pyrrolo[2,3-c]pyridin-4-yl]spiro[cyclopropane-1,3′-indol]-2′(1H)-one] | 
3 | 9.22 µM | Cn1cc([C@@H]2C[C@@]23C(=O)N(C2CC2)c2ccccc23)c2cc(C(=O)NC3CC3)[nH]c2c1=O (racemic) [Example 26, rac-N-cyclopropyl-4-[(1R,2S)-1′-cyclopropyl-2′-oxo-1′,2′-dihydrospiro[cyclopropane-1,3′-indol]-2-yl]-6-methyl-7-oxo-6,7-dihydro-1H-pyrrolo[2,3-c]pyridine-2-carboxamide] | 
4 | 1.49 µM | CN1C(=O)[C@@]2(C[C@H]2c2cn(C)c(=O)c3[nH]c(-c4nccn4C)cc23)c2ccccc21 (racemic) [Example 41, rac-(1R,2S)-1′-methyl-2-[6-methyl-2-(1-methyl-1H-imidazol-2-yl)-7-oxo-6,7-dihydro-1H-pyrrolo[2,3-c]pyridin-4-yl]spiro[cyclopropane-1,3′-indol]-2′(1H)-one] | 
5 | > 13 µM | Cc1ccnc(-c2cc3c([C@@H]4C[C@@]45C(=O)N(C)c4ccccc45)cn(C)c(=O)c3[nH]2)c1 (racemic) [Example 46, rac-(1R,2S)-1′-methyl-2-[6-methyl-2-(4-methylpyridin-2-yl)-7-oxo-6,7-dihydro-1H-pyrrolo[2,3-c]pyridin-4-yl]spiro[cyclopropane-1,3′-indol]-2′(1H)-one] | 
6 | 1.3 µM | CN1C(=O)[C@@]2(C[C@H]2c2cn(C)c(=O)c3[nH]c(-c4cncn4C)cc23)c2ccccc21 (racemic) [Example 44, rac-(1R,2S)-1′-methyl-2-[6-methyl-2-(1-methyl-1H-imidazol-5-yl)-7-oxo-6,7-dihydro-1H-pyrrolo[2,3-c]pyridin-4-yl]spiro[cyclopropane-1,3′-indol]-2′(1H)-one] | 
7 | 1.3 µM | CN1C(=O)[C@@]2(C[C@H]2c2cn(C)c(=O)c3[nH]c(-c4cnn(C)c4)cc23)c2ccccc21 [Example 35, (1R,2S)-1′-methyl-2-[6-methyl-2-(1-methyl-1H-pyrazol-4-yl)-7-oxo-6,7-dihydro-1H-pyrrolo[2,3-c]pyridin-4-yl]spiro[cyclopropane-1,3′-indol]-2′(1H)-one] | 
8 | 2.82 µM | CN1C(=O)[C@@]2(C[C@H]2c2cn(C)c(=O)c3[nH]c(-c4ncco4)cc23)c2ccccc21 (racemic) [Example 42, rac-(1R,2S)-1′-methyl-2-[6-methyl-2-(1,3-oxazol-2-yl)-7-oxo-6,7-dihydro-1H-pyrrolo[2,3-c]pyridin-4-yl]spiro[cyclopropane-1,3′-indol]-2′(1H)-one] | 

Continued, molecule first:

Row | Compound | Ki [2] | further results
9 | CN1C(=O)[C@]2(C[C@@H]2c2cn(C)c(=O)c3[nH]c(C(=O)NC4CC4)cc23)c2ccccc21 [Example 3, N-cyclopropyl-6-methyl-4-[(1S,2R)-1′-methyl-2′-oxo-1′,2′-dihydrospiro[cyclopropane-1,3′-indol]-2-yl]-7-oxo-6,7-dihydro-1H-pyrrolo[2,3-c]pyridine-2-carboxamide] | 3.25 µM | % TGI ([1]; dose 5 mg/kg/d, formulated in 10% ethanol, 30% PEG 400, 60% Phosol-50PG): 27%; % TGI ([1]; dose 15 mg/kg/d, formulated in 10% ethanol, 30% PEG 400, 60% Phosol-50PG): 33%; % TGI ([1]; dose 45 mg/kg/d, formulated in 10% ethanol, 30% PEG 400, 60% Phosol-50PG): 43%; % TGI ([1]; dose 100 mg/kg/d, formulated in 10% ethanol, 30% PEG 400, 60% Phosol-50PG): 58%; % TGI ([1]; dose 150 mg/kg/d, formulated in 10% ethanol, 30% PEG 400, 60% Phosol-50PG): 52%
10 | Cn1cc([C@H]2C[C@]23C(=O)Nc2ccccc23)c2cc(C(=O)NC3CC3)[nH]c2c1=O (single isomer, unassigned) [Example 20] | 7.34 µM | 
11 | CN1C(=O)[C@]2(C[C@@H]2c2cn(C)c(=O)c3[nH]c(C(=O)O)cc23)c2ccccc21 (single isomer, unassigned) [Example 6] | > 13 µM | 
12 | CCN1C(=O)[C@@]2(C[C@H]2c2cn(C)c(=O)c3[nH]c(C(=O)NC4CC4)cc23)c2ccccc21 (racemic) [Example 22, rac-N-cyclopropyl-4-[(1R,2S)-1′-ethyl-2′-oxo-1′,2′-dihydrospiro[cyclopropane-1,3′-indol]-2-yl]-6-methyl-7-oxo-6,7-dihydro-1H-pyrrolo[2,3-c]pyridine-2-carboxamide] | 4 µM | 
13 | CN1C(=O)[C@@]2(C[C@H]2c2cn(C)c(=O)c3[nH]c(C(=O)NC4CC4)cc23)c2ccccc21 [Example 4, N-cyclopropyl-6-methyl-4-[(1R,2S)-1′-methyl-2′-oxo-1′,2′-dihydrospiro[cyclopropane-1,3′-indol]-2-yl]-7-oxo-6,7-dihydro-1H-pyrrolo[2,3-c]pyridine-2-carboxamide] | > 13 µM | 
14 | CN1C(=O)[C@@]2(C[C@H]2c2cn(C)c(=O)c3[nH]c(C(=O)NC4CC(F)(F)C4)cc23)c2ccccc21 (racemic) [Example 5, rac-N-(3,3-difluorocyclobutyl)-6-methyl-4-[(1R,2S)-1′-methyl-2′-oxo-1′,2′-dihydrospiro[cyclopropane-1,3′-indol]-2-yl]-7-oxo-6,7-dihydro-1H-pyrrolo[2,3-c]pyridine-2-carboxamide] | 5.45 µM | 
15 | Cn1cc(C2CC23C(=O)N(CC(F)(F)F)c2ccccc23)c2cc(C(=O)NC3CC3)[nH]c2c1=O (racemic) [Example 23, rac-N-cyclopropyl-6-methyl-7-oxo-4-[(1R,2S)-2′-oxo-′-(2,2,2-trifluoroethyl)-1′,2′-dihydrospiro[cyclopropane-1,3′-indol]-2-yl]-6,7-dihydro-1H-pyrrolo[2,3-c]pyridine-2-carboxamide] | > 13 µM | 
